According to BindingDB's records for doi:10.1021/jm301674z (Takeda Pharmaceutical, 2013):

Biological target: Baculoviral IAP repeat-containing protein 2 (Homo sapiens) (UniProt Q13490)
Assay: Inhibition of human recombinant His-tagged cIAP1 protein BIR3 domain (250 to 350 amino acid residues) using biotinylated-Smac as substrate after overnight incubation by HTRF assay

Baculoviral IAP repeat-containing protein 2 (Homo sapiens), sequence (Q13490 whole entry, looked up, the tested form may be a part): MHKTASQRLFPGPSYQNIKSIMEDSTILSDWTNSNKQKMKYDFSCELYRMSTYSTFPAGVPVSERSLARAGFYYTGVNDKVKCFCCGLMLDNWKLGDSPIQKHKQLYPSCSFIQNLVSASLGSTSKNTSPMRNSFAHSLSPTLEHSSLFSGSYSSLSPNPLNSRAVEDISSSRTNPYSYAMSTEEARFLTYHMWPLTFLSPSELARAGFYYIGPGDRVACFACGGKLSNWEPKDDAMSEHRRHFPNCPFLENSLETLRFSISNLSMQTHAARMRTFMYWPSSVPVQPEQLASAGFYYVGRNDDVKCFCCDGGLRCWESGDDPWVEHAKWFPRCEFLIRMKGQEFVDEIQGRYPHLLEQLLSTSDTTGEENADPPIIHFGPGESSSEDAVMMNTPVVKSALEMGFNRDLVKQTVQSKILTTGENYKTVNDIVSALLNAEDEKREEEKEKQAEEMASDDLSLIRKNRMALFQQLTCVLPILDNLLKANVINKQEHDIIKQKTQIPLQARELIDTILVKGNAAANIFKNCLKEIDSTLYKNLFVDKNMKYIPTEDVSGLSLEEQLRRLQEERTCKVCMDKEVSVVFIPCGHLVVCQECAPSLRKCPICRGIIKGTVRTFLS

| Structure (SMILES) | IC50 |
| --- | --- |
| CN[C@@H](C)C(=O)N[C@H](C(=O)N1C[C@H]2CCCN2C[C@H]1C(=O)N[C@@H]1CCOc2ccccc21)C1CCOCC1 | 3.4 nM |
| CCO[C@@H]1C[C@@H]2CN(C(=O)[C@@H](NC(=O)[C@H](C)NC)C3CCC(F)(F)CC3)[C@H](C(=O)N[C@@H]3CCOc4ccccc43)CN2C1 | 1.3 nM |
| CN[C@@H](C)C(=O)N[C@H](C(=O)N1C[C@H]2CCCN2C[C@H]1C(=O)N[C@@H]1CCOc2ccccc21)C1CCC(F)(F)CC1 | 3.2 nM |
| CN[C@@H](C)C(=O)N[C@H](C(=O)N1C[C@H]2CCCN2C[C@H]1C(=O)N[C@H]1CCCc2ccccc21)C1CCCCC1 | 1300 nM |
| CN[C@@H](C)C(=O)N[C@H](C(=O)N1C[C@H]2CCCN2C[C@H]1C(=O)N[C@@H]1CCC(F)(F)c2ccccc21)C1CCCCC1 | 4 nM |
| CN[C@@H](C)C(=O)N[C@H](C(=O)N1C[C@H]2CC(F)(F)CN2C[C@H]1C(=O)N[C@@H]1CCOc2ccccc21)C1CCC(F)(F)CC1 | 1.7 nM |
| CN[C@@H](C)C(=O)N[C@H](C(=O)N1C[C@@H]2CCCN2C[C@H]1C(=O)N[C@@H]1CCOc2ccccc21)C1CCC(F)(F)CC1 | 2.5 nM |
| CN[C@@H](C)C(=O)N[C@H](C(=O)N1C[C@H]2CCCN2C[C@H]1C(=O)N[C@@H]1CCOc2ccccc21)c1ccccc1 | 2.6 nM |
| CN[C@@H](C)C(=O)N[C@H](C(=O)N1C[C@H]2CCCN2C[C@H]1C(=O)N[C@@H]1CCC(=O)c2ccccc21)C1CCCCC1 | 7.6 nM |
| CN[C@@H](C)C(=O)N[C@H](C(=O)N1C[C@H]2CCCN2C[C@H]1C(=O)N[C@@H]1CCCc2ccccc21)C1CCCCC1 | 2.7 nM |
| CN[C@@H](C)C(=O)N[C@H](C(=O)N1C[C@H]2C[C@@H](O)CN2C[C@H]1C(=O)N[C@@H]1CCOc2ccccc21)C1CCC(F)(F)CC1 | 4.9 nM |
| CN[C@@H](C)C(=O)N[C@H](C(=O)N1C[C@H]2CCCN2C[C@H]1C(=O)N[C@H](C)c1ccccc1)C1CCCCC1 | 14 nM |
